For assay [1], the target named is JAK1 (recombinant purified GST-tagged catalytic domain) (Homo sapiens (Human), UniProt P23458). Description: biochemical.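 Note: biochemical assay with HTRF read-out.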
The target of assay [2] is JAK2 (recombinant purified GST-tagged catalytic domain) (Homo sapiens (Human), UniProt O60674). The assay can be described thus: biochemical.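 Note: biochemical JAK kinase assay with HTRF detection.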

This note sets out measurements from patent US8962608B2, “Cycloalkylnitrile pyrazole carboxamides as janus kinase inhibitors” (Merck Sharp & Dohme Corp., priority 2011, dated 2015).

In general, IC50 refers to the concentration at which inhibition is half-maximal.

Chain of JAK1 (recombinant purified GST-tagged catalytic domain) (P23458 875-1153): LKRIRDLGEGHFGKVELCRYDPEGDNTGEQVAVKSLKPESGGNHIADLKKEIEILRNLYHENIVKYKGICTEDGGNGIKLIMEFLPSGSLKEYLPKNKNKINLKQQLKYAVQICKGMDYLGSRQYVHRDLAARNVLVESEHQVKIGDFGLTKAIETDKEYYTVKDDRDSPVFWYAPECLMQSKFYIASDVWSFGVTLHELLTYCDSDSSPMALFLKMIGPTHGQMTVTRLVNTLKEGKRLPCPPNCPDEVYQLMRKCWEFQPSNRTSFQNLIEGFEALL
Chain of JAK2 (recombinant purified GST-tagged catalytic domain) (O60674 849-1124): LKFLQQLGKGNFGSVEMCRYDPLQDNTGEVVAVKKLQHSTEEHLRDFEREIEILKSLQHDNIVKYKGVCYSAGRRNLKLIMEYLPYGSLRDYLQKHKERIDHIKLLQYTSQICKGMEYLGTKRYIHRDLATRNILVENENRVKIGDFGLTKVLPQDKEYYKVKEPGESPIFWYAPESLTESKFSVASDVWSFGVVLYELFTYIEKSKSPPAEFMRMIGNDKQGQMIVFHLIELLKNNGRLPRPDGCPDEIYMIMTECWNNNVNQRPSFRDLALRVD

For the molecule `COC(=O)c1cncc(Nc2nn([C@H]3CCCC[C@@H]3C#N)cc2C(N)=O)c1` (single isomer, unassigned) [Example 17-72, methyl 5-({4-carbamoyl-1-[(1R,2R or 1S,2S)-2-cyanocyclohexyl]-1H-pyrazol-3-yl}amino)pyridine-3-carboxylate], the IC50 in assay [1] was determined as 12 nM; in assay [2], 89 nM.
Turning to `COCCNS(=O)(=O)c1ccc(Nc2nn([C@H]3CCCC[C@@H]3C#N)cc2C(N)=O)cc1` (single isomer, unassigned) [Example 17-98, 1-[(1R,2R or 1S,2S)-2-cyanocyclohexyl]-3-({4-[(2-methoxyethyl)sulfamoyl]phenyl}amino)-1H-pyrazole-4-carboxamide], the results for the IC50 in assay [1] and in assay [2] were 0.25 nM and 1 nM, respectively.
The corresponding values for `Cc1noc(-c2ccc(Nc3nn([C@H]4CCCC[C@@H]4C#N)cc3C(N)=O)cc2)n1` (racemic) [Example 17-6, 1-[(1S,2S and 1R,2S)-2-cyanocyclohexyl]-3-{[4-(3-methyl-1,2,4-oxadiazol-5-yl)phenyl]amino}-1H-pyrazole-4-carboxamide] are 4 nM and 25 nM.
For `N#C[C@H]1C[C@H](O)CC[C@@H]1n1cc(C(N)=O)c(Nc2ccccc2)n1` (single isomer, unassigned) [Example 25-29, 1-[(1S,2S,4R or 1R,2R,4S)-2-cyano-4-hydroxycyclohexyl]-3-(phenylamino)-1H-pyrazole-4-carboxamide], the IC50 was determined as 2 nM in assay [1] and 26 nM in assay [2].
The corresponding values for `N#Cc1ccc(Nc2nn([C@H]3CCCC[C@H]3C#N)cc2C(N)=O)cc1` (racemic) [Example 17-16, 1-[(1S,2R and 1R,2S)-2-cyanocyclohexyl]-3-[(4-cyanophenyl)amino]-1H-pyrazole-4-carboxamide] are 11 nM and 36 nM.
In the case of `N#C[C@H]1C[C@H](N(CC2CC2)CC2CC2)CC[C@@H]1n1cc(C(N)=O)c(Nc2ccc(C(F)(F)F)cc2)n1` (single isomer, unassigned) [Example 30-15, l-{(1S,2S,4R or 1R,2R,4S)-4-[bis(cyclopropylmethyl)amino]-2-cyanocyclohexyl}-3-{[4-(trifluoromethyl)phenyl]amino}-1H-pyrazole-4-carboxamide], the figures for the IC50 in assay [1] and in assay [2] were 260 nM and greater than 1500 nM, respectively.
In the case of `N#C[C@H]1CCCC[C@@H]1n1cc(C(N)=O)c(Nc2cnc3c(c2)CNC3=O)n1` (single isomer, unassigned) [Example 17-76, 1-[(1R,2R or 1S,2S)-2-cyanocyclohexyl]-3-[(7-oxo-6,7-dihydro-5H-pyrrolo[3,4-b]pyridin-3-yl)amino]-1H-pyrazole-4-carboxamide], the concentration for half-maximal inhibition (IC50) in assay [1] worked out at 0.55 nM; in assay [2], 7 nM.
Turning to `N#C[C@H]1C[C@@H](N[C@H](C2CC2)C(F)(F)F)CC[C@@H]1n1cc(C(N)=O)c(Nc2ccc(C(F)(F)F)cc2)n1` (single isomer, unassigned) [Example 28-192, 1-[(1S,2S,4S or 1R,2R,4R)-2-cyano-4-{[(1S)-1-cyclopropyl-2,2,2-trifluoroethyl]amino}cyclo-hexyl]-3-{[4-(trifluoromethyl)phenyl]amino}-1H-pyrazole-4-carboxamide], the concentration for half-maximal inhibition (IC50) in assay [1] is 2 nM; in assay [2], 67 nM.
For `Cn1cc(-c2cc(Nc3nn([C@H]4CCCC[C@@H]4C#N)cc3C(N)=O)ccn2)cn1` (racemic) [Example 17-22, 1-[(1S,2S and 1R,2R)-2-cyanocyclohexyl]-3-{[2-(1-methyl-1H-pyrazol-4-yl)pyridin-4-yl]amino}-1H-pyrazole-4-carboxamide], in that order: 3 nM and 60 nM.
The corresponding values for `N#C[C@H]1CC(NC(C2CC2)C2CC2)CC[C@@H]1n1cc(C(N)=O)c(Nc2ccc(S(=O)(=O)C(F)(F)F)cc2)n1` (single isomer, unassigned) [Example 28-164, 1-{(1S,2S,4R or 1R,2R,4S)-2-cyano-4-[(dicyclo-propylmethyl)amino]cyclohexyl}-3-({4-[(trifluoro-methyl)sulfonyl]phenyl}amino)-1H-pyrazole-4-carboxamide] are 4 nM and 225 nM.
For `CNC(=O)O[C@H]1CCC(n2cc(C(N)=O)c(Nc3ccc(F)cc3)n2)[C@@H](C#N)C1` (mixture of isomers) [Example 34-9, (1S,3S,4S and 1R,3R,4R)-4-{4-carbamoyl-3-[(4-fluorophenyl)aminol-1H-pyrazol-1-yl}-3-cyanocyclohexyl methylcarbamate], in that order: 3 nM and 51 nM.
For the molecule `N#C[C@H]1CC[C@H](O)CC1n1cc(C(N)=O)c(Nc2ccccc2)n1` (mixture of isomers) [Example 2-12, 1-[(1R,2R,5R and 1S,2S,5S)-2-cyano-5-hydroxycyclohexyl]-3-(phenylamino)-1H-pyrazole-4-carboxamide], the IC50 in assay [1] was determined as 15 nM; in assay [2] it was 79 nM.
Turning to `N#C[C@H]1C[C@H](NC2COC2)CC[C@@H]1n1cc(C(N)=O)c(Nc2ccc(CC(F)(F)F)cc2)n1` (single isomer, unassigned) [Example 28-77, 1-[(1S,2S,4R or 1R,2R,4S)-2-cyano-4-(oxetan-3-ylamino)cyclohexyl]-3-{[4-(2,2,2-trifluoroethyl)phenyl]amino}-1H-pyrazole-4-carboxamide], the half-inhibitory concentration (IC50) is 0.7 nM in assay [1] and 4 nM in assay [2].
For `N#C[C@H]1CCCC[C@@H]1n1cc(C(N)=O)c(Nc2cncc(Cl)c2)n1` (single isomer, unassigned) [Example 17-47, 3-[(5-chloropyridin-3-yl)amino]-1-[(1S,2S or 1R,2R)-2-cyanocyclohexyl]-1H-pyrazole-4-carboxamide], in that order: 7 nM and 39 nM.
For `N#C[C@H]1CCCC[C@@H]1n1cc(C(N)=O)c(Nc2ccc(Cl)cc2)n1` (single isomer, unassigned) [Example 17-107, 3-[(4-chlorophenyl)amino]-1-[(1S,2S or 1R,2R)-2-cyanocyclohexyl]-1H-pyrazole-4-carboxamide], in that order: 0.95 nM and 11 nM.
The corresponding values for `N#C[C@H]1C[C@H](N2CCC2)CC[C@@H]1n1cc(C(N)=O)c(Nc2ccc(Cl)cc2)n1` (single isomer, unassigned) [Example 28-109, 1-[(1S,2S,4R or 1R,2R,4S)-4-azetidin-1-yl-2-cyanocyclohexyl]-3-[(4-chlorophenyl)amino]-1H-pyrazole-4-carboxamide] are 2 nM and 110 nM.
For `C[C@H](NC1CC[C@H](n2cc(C(N)=O)c(Nc3ccc(C(F)(F)F)cc3)n2)[C@@H](C#N)C1)C1CC1` (single isomer, unassigned) [Example 28-191, 1-[(1S,2S or 1R,2R)-2-cyano-4-{[(1S)-1-cyclopropylethyl]amino}cyclo-hexyl]-3-{[4-(trifluoromethyl)phenyl]amino}-1H-pyrazole-4-carboxamide], the half-maximal inhibitory concentration (IC50) in assay [1] amounted to 0.9 nM; in assay [2] it was 104 nM.
For `N#C[C@H]1C[C@H](OC(=O)NC2CCCCC2)CCC1n1cc(C(N)=O)c(Nc2ccc(F)cc2)n1` (mixture of isomers) [Example 34-5, (1R,3S,4S and 1S,3R,4R)-4-{4-carbamoyl-3-[(4-fluorophenyl)amino]-1H-pyrazol-1-yl}-3-cyanocyclohexyl cyclohexylcarbamate], in that order: 7 nM and 88 nM.
In the case of `N#C[C@H]1C[C@@H](NCc2ccccc2)CC[C@@H]1n1cc(C(N)=O)c(Nc2ccnc(F)c2)n1` (single isomer, unassigned) [Example 28-97, 1-[(1S,2S,4S or 1R,2R,4R)-4-(benzylamino)-2-cyanocyclohexyl]-3-[(2-fluoropyridin-4-yl)amino]-1H-pyrazole-4-carboxamide], the results for the IC50 in assay [1] and in assay [2] were 0.3 nM and 9 nM, respectively.
As to `CC1(O)CN(C(=O)[C@H]2CC[C@H](n3cc(C(N)=O)c(Nc4ccc(Cl)cc4)n3)[C@@H](C#N)C2)C1` (single isomer, unassigned) [Example 35-30, 3-[(4-chlorophenyl)amino]-1-{(1S,2S,4S or 1R,2R,4R)-2-cyano-4-[(3-hydroxy-3-methylazetidin-1-yl)carbonyl]cyclohexyl}-1H-pyrazole-4-carboxamide], the IC50 worked out at 10 nM in assay [1] and 180 nM in assay [2].
For `CC1(O)CN([C@@H]2CC[C@H](n3cc(C(N)=O)c(Nc4ccc(C(F)(F)F)cc4)n3)[C@@H](C#N)C2)C1` (single isomer, unassigned) [Example 28-199, 1-[(1S,2S,4R or 1R,2R,4S)-2-cyano-4-(3-hydroxy-3-methylazetidin-1-yl)cyclohexyl]-3-{[4-(trifluoromethyl)phenyl]amino}-1H-pyrazole-4-carboxamide], in that order: 0.3 nM and 9 nM.
The corresponding values for `N#Cc1ccc(Nc2nn([C@H]3CC[C@@H](O)C[C@@H]3C#N)cc2C(N)=O)cc1` (single isomer, unassigned) [Example 25-4, 1-[(1S,2S,4R or 1R,2R,4S)-2-cyano-4-hydroxycyclohexyl]-3-[(4-cyanophenyl)amino]-1H-pyrazole-4-carboxamide] are 0.55 nM and 3 nM.
For `CC(C)(c1ccc(Nc2nn([C@H]3CC[C@H](O)C[C@@H]3C#N)cc2C(N)=O)cc1)C(O)C(F)(F)F` (single isomer, unassigned) [Example 33-16, 1-[(1S,2S,4S or 1R,2R,4R)-2-cyano-4-hydroxycyclohexyl]-3-{[4-(3,3,3-trifluoro-(2R or 2S)-hydroxy-1,1-dimethylpropyl)phenyl]amino}-1H-pyrazole-4-carboxamide], in that order: 0.7 nM and 3 nM.
In the case of `CN(CC1(C)COC1)[C@H]1CCC(n2cc(C(N)=O)c(Nc3ccc(Cl)cc3)n2)[C@@H](C#N)C1` (single isomer, unassigned) [Example 28-219, 3-[(4-chlorophenyl)amino]-1-[(1S,2S,4S or 1R,2R,4R)-2-cyano-4-{methyl[(3-methyloxetan-3-yl)methyl]amino}cyclohexyl]-1H-pyrazole-4-carboxamide], the IC50 in assay [1] was determined as 1 nM; in assay [2], 11 nM.
